# Earlier results, collected in patent US4833125A, “Method of increasing bone mass” (The General Hospital Corporation, priority 1987, dated 1989).
# Test system: osteoporosis in humans
# Conditions: hPTH (1-34) alone, Reeve et al. 1980
substance,measurement,value
"hPTH (1-34): fragment of human parathyroid hormone, first thirty-four amino acid residues, given alone in cited trial (SVSEIQLMHNLGKHLNSMERVEWLRKKLQDVHNF; Parathyroid hormone; UniProt P01270 32-65, looked up, fragment)",axial trabecular bone,considerable increase
same,"calcium retention, and hence total bone mass",improved in only about half of these patients
